# Read-outs that look alike come from different tables or passages of the source.
# System: DLD-1 BRCA2−/− cells
# Assay: Homologous recombination synthetic lethal inhibition of proliferation, DLD-1 BRCA2-/- (Cell Titre Glo 3D)
# Assay type: cell-based
# Details: Homo sapiens
# In short: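 Luminescent Cell Titre Glo 3D readout, taken on day 12 for homologous-recombination-deficient DLD-1 BRCA2−/− and day 7 for the wild-type control, after compound refresh on day 6. Compounds spanned 10 μM to 0.51 nM in three-fold steps; IC50 defined as 50% reduction of average maximum signal.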
# [1] = DLD-1, DLD-1 BRCA2 −/− cells, mean, read-out: POLQ PD Prolif Lumin BRCA2 −/− mean pIC50 (converted)
# [2] = DLD-1, first proliferation column (c5), taken as DLD-1 BRCA2-/-, read-out: POLQ PD Prolif Lumin (converted)
# [3] = DLD-1, first proliferation column (c5), DLD-1 BRCA2-/-, read-out: POLQ PD Prolif Lumin (converted)
structure (smiles),measurement,setting,value
"Cc1nc(Cn2c(-c3ccc(CC(N)=O)cc3Cl)nc3c(OC4(C)CC4)ncnc32)sc1C [Example T24, 2-(3-chloro-4-(9-((4,5-dimethylthiazol-2-yl)methyl)-6-(1-methylcyclopropoxy)-9H-purin-8-yl)phenyl)acetamide]",IC50,[1],794 nM
"Cc1ccnc(Cn2c(-c3ccc(CC(=O)NCCCO)cc3Cl)nc3c(OC4(C)CC4)ncnc32)c1 [Example T370, 2-(3-chloro-4-(6-(1-methylcyclopropoxy)-9-((4-methylpyridin-2-yl)methyl)-9H-purin-8-yl)phenyl)-N-(3-hydroxypropyl)acetamide]",IC50,[2],1000 nM
"Cc1ccnc(Cn2c(-c3ccc(OCC(=O)NC[C@H](C)F)cc3Cl)nc3c(OC4(C)CC4)ncnc32)c1 [Example T327, (S)-2-(3-chloro-4-(6-(1-methylcyclopropoxy)-9-((4-methylpyridin-2-yl)methyl)-9H-purin-8-yl)phenoxy)-N-(2-fluoropropyl)acetamide]",IC50,[2],200 nM
"CC1(Oc2ncnc3c2nc(-c2ccc(CC(N)=O)cc2Cl)n3Cc2ccc(F)cc2)CC1 [Example T43, 2-(3-chloro-4-(9-(4-fluorobenzyl)-6-(1-methylcyclopropoxy)-9H-purin-8-yl)phenyl)acetamide]",IC50,[1],631 nM
"Cc1ccnc(Cn2c(-c3cc(CC(N)=O)ccc3Cl)nc3c(OC4(C)CC4)ncnc32)c1 [Example T57, 2-(4-chloro-3-(6-(1-methylcyclopropoxy)-9-((4-methylpyridin-2-yl)methyl)-9H-purin-8-yl)phenyl)acetamide]",IC50,[1],> 10000 nM
"Cc1ccnc(Cn2c(-c3ccc(N4CCNC(=O)C4)cc3Cl)nc3c(OC4(C)CC4)ncnc32)c1 [Example T201, 4-(3-chloro-4-(6-(1-methylcyclopropoxy)-9-((4-methylpyridin-2-yl)methyl)-9H-purin-8-yl)phenyl)piperazin-2-one]",IC50,[3],501 nM
"CC1(Oc2ncnc3c2nc(-c2ccc(CC(N)=O)cc2Cl)n3Cc2ccnc(C(F)(F)F)c2)CC1 [Example T35, 2-(3-chloro-4-(6-(1-methylcyclopropoxy)-9-((2-(trifluoromethyl)pyridin-4-yl)methyl)-9H-purin-8-yl)phenyl)acetamide]",IC50,[1],2510 nM
"Cc1ccnc(Cn2c(-c3ccc(OCC(=O)N(C)CCC#N)cc3Cl)nc3c(OC4(C)CC4)ncnc32)c1 [Example T430, 2-(3-chloro-4-(6-(1-methylcyclopropoxy)-9-((4-methylpyridin-2-yl)methyl)-9H-purin-8-yl)phenoxy)-N-(2-cyanoethyl)-N-methylacetamide]",IC50,"DLD-1, proliferation, luminescence, taken as DLD-1 BRCA2-/-, read-out: POLQ PD Prolif Lumin (converted)",501 nM
"COc1cnnc(Cn2c(-c3ccc(CC(N)=O)cc3Cl)nc3c(OC4(C)CC4)ncnc32)c1 [Example T22, 2-(3-chloro-4-(9-((5-methoxypyridazin-3-yl)methyl)-6-(1-methylcyclopropoxy)-9H-purin-8-yl)phenyl)acetamide]",IC50,[1],3980 nM
"CC(CCOc1ccc(-c2nc3c(OC4(C)CC4)ncnc3n2Cc2cccc(Cl)c2)c(Cl)c1)C(=O)O (racemic) [Example T291, 4-(3-chloro-4-(9-(3-chlorobenzyl)-6-(1-methylcyclopropoxy)-9H-purin-8-yl)phenoxy)-2-methylbutanoic acid]",IC50,"DLD-1, DLD-1 BRCA2-/- proliferation, column head only partly shown, read-out: POLQ PD Prolif Lumin (converted)",158 nM
"COc1c(Cl)cccc1Cn1c(-c2ccc(OCCC(C)C(=O)O)cc2Cl)nc2c(OC3(C)CC3)ncnc21 (racemic) [Example U3, 4-(3-chloro-4-(9-(3-chloro-2-methoxybenzyl)-6-(1-methylcyclopropoxy)-9H-purin-8-yl)phenoxy)-2-methylbutanoic acid]",IC50,"DLD-1, DLD-1 BRCA2 −/−, mean, read-out: POLQ PD Prolif Lumin BRCA2 −/− mean pIC50 (converted)",3980 nM
"Cc1ccc(C)c(Cn2c(-c3ccc(OCCC(C)C(=O)O)cc3Cl)nc3c(OC4(C)CC4)ncnc32)c1 (racemic) [Example T569, 4-(3-chloro-4-(9-(2,5-dimethylbenzyl)-6-(1-methylcyclopropoxy)-9H-purin-8-yl)phenoxy)-2-methylbutanoic acid]",IC50,[3],631 nM
"Cc1ccnc(Cn2c(-c3ccc(OCC(=O)NCC(F)F)cc3Cl)nc3c(OC4(C)CC4)ncnc32)c1 [Example T166, 2-(3-chloro-4-(6-(1-methylcyclopropoxy)-9-((4-methylpyridin-2-yl)methyl)-9H-purin-8-yl)phenoxy)-N-(2,2-difluoroethyl)acetamide]",IC50,[3],316 nM
